From patent US9212139B2, “Aryl substituted indoles and their use as blockers of sodium channels” (Purdue Pharma, L.P., priority 2010, dated 2015)

What follows are molecules tested against human Nav1.7 (Homo sapiens (Human), UniProt Q15858) (assay: FLIPR or FLIPR TETRA sodium dye assay with KCl and test article pre-incubation). Details: read-out: FLIPR Nav1.7 IC50 (μM) ± SEM.
Type: cell-based
Text: For dominant selection of the Nav1.7-expressing clones, the expression plasmid co-expressed the neomycin resistance gene. […] Recombinant beta and gamma subunits were not introduced into this cell line. Additional cell lines expressing recombinant Nav1.7 cloned from other species can also be used, alone or in combination with various beta subunits, gamma subunits or chaperones.
Cell maintenance: Unless otherwise noted, cell culture reagents were purchased from Mediatech of Herndon, Va. The recombinant Nav1.7/HEK293 cells were routinely cultured in growth medium consisting of Dulbecco's […] containing 10% fetal bovine serum (FBS, Hyclone, Thermo Fisher Scientific, Logan, Utah), 100 U/mL penicillin, […], 2-4 mM L-glutamine, and […]. For natural, non-recombinant cell lines, the selective antibiotic was omitted, and additional media formulations can be applied as needed.
The intensity of this emission, but not the wavelength range, is increased when the dye is exposed to Na^+ ions, which it can bind with partial selectivity. Cells expressing Nav1.7 or other sodium channels were loaded with the CoroNa™ Green dye immediately in advance of the fluorescence assay, and then, after agonist stimulation, the mobilization of Na^+ ions was detected as the Na^+ ions flowed from the extracellular fluid into the cytoplasm through the activated sodium channel pores. The dye was stored in the dark as a lyophilized powder, and then an aliquot was dissolved immediately before the cell loading procedure, according to the instructions of the manufacturer to a stock concentration of 10 mM in DMSO. It was then diluted in the assay buffer to a 4× concentrated working solution, so that the final concentration of dye in the cell loading buffer was 5 μM.
These scorpion toxins inhibit the fast inactivation of their cognate target channels. Stock solutions of the agonists were prepared to 40 mM in DMSO (veratridine) and 1 mg/mL in dH2O (scorpion venom), and then diluted to make a 4× or 2× stock (depending on the particular assay) in assay buffer, the final concentration being 100 μM (veratridine) and 10 μg/mL (scorpion venom). Both of the agonists were purchased from Sigma Aldrich, St. Louis, Mo.
Test Compounds: Test compounds were dissolved in DMSO to yield 10 mM stock solutions. […] If a particular test article appeared to be especially potent, then the concentration curve was adjusted, e.g., to 10-fold lower concentrations, in order to perform the dose-response in a more relevant concentration range. Compound dilutions were added during the dye-loading and pre-stimulation step, and then again during the fluorescence assay, early in the kinetic read.
Data Analysis: The data were analyzed according to methods known to those skilled in the art or using the GraphPad® Prism 4.0 Program (available from GraphPad Software, San Diego, Calif.) to determine the IC50 value for the test article. At least one standard reference compound was evaluated during each experiment.
FLIPR® or FLIPR^TETRA® sodium dye assay with KCl and test article pre-incubation: Cells were prepared by plating the recombinant HEK293 cells or other host cells expressing either recombinant or non-recombinant, native, Nav1.7 alpha subunit, alone or in combination with various beta and gamma subunits at a density of ˜40,000 cells/well into a 96-well black, clear-bottom, PDL-coated plate. The assay can be adapted to 384-well or 1,536-well format, if desired, using proportionately less cells and media. […] For counter-screens of other voltage-gated sodium channels, the procedure was very similar, though optimal densities of cells, media and subsequent assay components can be fine-tuned for the particular cell line or isoform.

Sequence of human Nav1.7 (Q15858 other isoform, or with tags, fused parts or gaps): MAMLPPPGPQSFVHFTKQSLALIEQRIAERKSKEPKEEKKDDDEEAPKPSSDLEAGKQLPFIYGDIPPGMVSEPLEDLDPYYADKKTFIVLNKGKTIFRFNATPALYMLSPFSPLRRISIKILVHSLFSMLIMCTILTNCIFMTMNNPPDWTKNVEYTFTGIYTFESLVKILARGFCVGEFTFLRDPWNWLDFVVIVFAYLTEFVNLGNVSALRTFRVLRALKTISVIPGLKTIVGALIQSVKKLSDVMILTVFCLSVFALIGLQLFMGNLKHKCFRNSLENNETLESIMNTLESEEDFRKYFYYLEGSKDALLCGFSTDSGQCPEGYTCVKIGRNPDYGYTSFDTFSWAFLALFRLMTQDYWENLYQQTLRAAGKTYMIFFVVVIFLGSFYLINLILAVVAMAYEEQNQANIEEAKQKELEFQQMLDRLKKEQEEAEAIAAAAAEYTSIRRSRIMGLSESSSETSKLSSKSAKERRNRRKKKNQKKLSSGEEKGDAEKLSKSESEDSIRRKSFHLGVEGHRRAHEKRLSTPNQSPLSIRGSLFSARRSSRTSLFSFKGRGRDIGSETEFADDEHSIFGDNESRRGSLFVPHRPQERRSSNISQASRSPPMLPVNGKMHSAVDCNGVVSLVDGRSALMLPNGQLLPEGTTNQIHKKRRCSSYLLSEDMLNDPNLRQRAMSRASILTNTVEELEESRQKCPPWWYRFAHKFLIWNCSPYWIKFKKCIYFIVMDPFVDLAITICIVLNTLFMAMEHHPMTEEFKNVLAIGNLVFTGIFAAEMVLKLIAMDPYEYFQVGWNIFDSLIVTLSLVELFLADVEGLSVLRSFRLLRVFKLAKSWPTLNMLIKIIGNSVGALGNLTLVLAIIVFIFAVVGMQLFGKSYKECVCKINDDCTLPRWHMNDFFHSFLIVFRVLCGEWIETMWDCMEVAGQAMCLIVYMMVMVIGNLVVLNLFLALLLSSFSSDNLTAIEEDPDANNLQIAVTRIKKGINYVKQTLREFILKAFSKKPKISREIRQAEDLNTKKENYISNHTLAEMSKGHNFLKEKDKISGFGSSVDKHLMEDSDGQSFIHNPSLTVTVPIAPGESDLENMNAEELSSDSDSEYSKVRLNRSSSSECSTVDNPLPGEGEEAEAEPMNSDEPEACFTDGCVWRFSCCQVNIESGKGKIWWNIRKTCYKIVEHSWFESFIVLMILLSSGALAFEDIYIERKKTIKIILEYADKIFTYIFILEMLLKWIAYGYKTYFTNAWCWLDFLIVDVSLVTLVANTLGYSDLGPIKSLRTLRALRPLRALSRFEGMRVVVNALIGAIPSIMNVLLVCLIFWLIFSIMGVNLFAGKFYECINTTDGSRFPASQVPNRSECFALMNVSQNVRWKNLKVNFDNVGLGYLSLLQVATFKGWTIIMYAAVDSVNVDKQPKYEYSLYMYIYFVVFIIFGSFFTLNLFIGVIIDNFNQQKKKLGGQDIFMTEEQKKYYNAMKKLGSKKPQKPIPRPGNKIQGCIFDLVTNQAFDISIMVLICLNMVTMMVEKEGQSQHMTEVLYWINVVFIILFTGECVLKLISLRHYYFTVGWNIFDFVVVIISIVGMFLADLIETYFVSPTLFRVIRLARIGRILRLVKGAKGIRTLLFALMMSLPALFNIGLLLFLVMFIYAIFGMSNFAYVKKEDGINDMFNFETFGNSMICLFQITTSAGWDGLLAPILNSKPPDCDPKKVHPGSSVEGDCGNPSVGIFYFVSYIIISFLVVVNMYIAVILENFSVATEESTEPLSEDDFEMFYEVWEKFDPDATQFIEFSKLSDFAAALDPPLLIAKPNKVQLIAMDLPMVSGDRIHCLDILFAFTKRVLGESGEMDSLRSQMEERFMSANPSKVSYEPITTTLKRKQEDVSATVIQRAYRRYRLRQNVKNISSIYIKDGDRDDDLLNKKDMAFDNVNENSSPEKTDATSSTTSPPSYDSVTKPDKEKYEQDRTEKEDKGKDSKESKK

| Compound | IC50 |
| --- | --- |
| N#Cc1ccc(Oc2ccc(-n3cc(C(O)(C(N)=O)C(F)(F)F)c4ccccc43)cc2)cc1C(F)(F)F (centres unmarked) [Compound 192, 2-(1-(4-(4-Cyano-3-(trifluoromethyl)phenoxy)phenyl)-1H-indol-3-yl)-3,3,3-trifluoro-2-hydroxypropanamide] | 0.475 ± 0.065 µM |
| N#Cc1ccc(Oc2ccc(-n3cc(C[C@@H](O)CO)c4ccccc43)cc2)cc1 [Compound 77, (R)-4-(4-(3-(2,3-Dihydroxypropyl)-1H-indol-1-yl)phenoxy)benzonitrile] | 0.48 ± 0.087 µM |
| O=C(NO)c1nn(-c2ccc(Oc3ccccc3)cc2)c2ccccc12 [Compound 146, N-Hydroxy-1-(4-phenoxyphenyl)-1H-indazole-3-carboxamide] | 8.07 ± 0.484 µM |
| CCN(CC)CCn1cc(C(=O)C(N)=O)c2cc(-c3ccc(Oc4ccc(F)cc4)cc3)ccc21 [Compound 178, 2-(1-(2-Diethylamino)ethyl-5-(4-(4-fluorophenoxy)phenyl)-1H-indol-3-yl)-2-oxoacetamide] | 1.03 ± 0.076 µM |
| NC(=O)c1nn(-c2ccc(Oc3ccccc3)cc2)c2ccccc12 [Compound 145, 1-(4-Phenoxyphenyl)-1H-indazole-3-carboxamide] | 0.326 ± 0.043 µM |
| CCN(CC)CCn1ccc2cc(-c3ccc(Oc4ccc(F)cc4)cc3)ccc21 [Compound 177, N,N-Diethyl-2-(5-(4-(4-fluorophenoxy)phenyl)-1H-indol-1-yl)ethanamine] | 0.895 ± 0.154 µM |
| N#Cc1ccc(Oc2ccc(-n3cc(C(O)C(N)=O)c4ccccc43)cc2)cc1C(F)(F)F (centres unmarked) [Compound 193, 2-(1-(4-(4-Cyano-3-(trifluoromethyl)phenoxy)phenyl)-1H-indol-3-yl)-2-hydroxyacetamide] | 0.414 ± 0.026 µM |
| N#Cc1ccc(Oc2ccc(-n3cc(C[C@H](O)CO)c4ccccc43)cc2)cc1 [Compound 76, (S)-4-(4-(3-(2,3-Dihydroxypropyl)-1H-indol-1-yl)phenoxy)benzonitrile] | 0.501 ± 0.089 µM |

Same assay, conditions: sodium dye assay with KCl; recombinant human Nav1.7 in HEK293 cells; value ± SEM

| Compound | IC50 |
| --- | --- |
| O=S(=O)(Nc1ccc(F)cc1)c1ccc(-n2cc(C[C@H](O)CO)c3ccccc32)cc1 [Compound 92, (S)-4-(3-(2,3-Dihydroxypropyl)-1H-indol-1-yl)-N-(4-fluorophenyl)benzenesulfonamide] | 1.89 ± 0.164 µM |
| OCCn1cc(C[C@H](O)CO)c2cc(-c3ccc(Oc4ccc(F)cc4)cc3)ccc21 [Compound 200, (S)-3-(5-(4-(4-fluorophenoxy)phenyl)-1-(2-hydroxyethyl)-1H-indol-3-yl)propane-1,2-diol] | 0.273 ± 0.061 µM |
| CCOC(=O)C(N)Cc1c[nH]c2ccc(-c3ccc(Oc4ccccc4)cc3)cc12 (centres unmarked) [Compound 7, 2-Amino-3-[5-(4-phenoxyphenyl)-1H-indol-3-yl]propionic acid ethyl ester] | 0.481 ± 0.042 µM |
| O=C(O)c1cccc2c1c(C[C@H](O)CO)cn2-c1ccc(Oc2ccc(F)cc2)cc1 [Compound 129, (S)-3-(2,3-Dihydroxypropyl)-1-(4-(4-fluorophenoxy)phenyl)-1H-indole-4-carboxylic acid] | 3.33 ± 0.495 µM |
| N#Cc1ccc2c(C[C@H](O)CO)cn(-c3ccc(Oc4ccc(F)cc4)cc3)c2c1 [Compound 105, (S)-3-(2,3-Dihydroxypropyl)-1-(4-(4-fluorophenoxy)phenyl)-1H-indole-6-carbonitrile] | 1.65 ± 0.438 µM |
| NC(=O)C(N)Cc1c(-c2ccc(Oc3ccccc3)cc2)[nH]c2ccccc12 (centres unmarked) [Compound 28, 2-Amino-3-[2-(4-phenoxyphenyl)-1H-indol-3-yl]propionamide] | 0.24 ± 0.023 µM |
| CN(c1ccc(F)cc1)S(=O)(=O)c1ccc(-n2cc(C[C@H](O)CO)c3ccccc32)cc1 [Compound 90, (S)-4-(3-(2,3-Dihydroxypropyl)-1H-indol-1-yl)-N-(4-fluorophenyl)-N-methylbenzenesulfonamide] | 0.865 ± 0.058 µM |
| OC[C@@H](O)Cc1cn(-c2ccc(Oc3ccc(C(F)(F)F)cc3)cc2)c2ccccc12 [Compound 80, (S)-3-(1-(4-(4-(Trifluoromethyl)phenoxy)phenyl)-1H-indol-3-yl)propane-1,2-diol] | 0.524 ± 0.085 µM |
| N#Cc1cc(Oc2ccc(-n3cc(C[C@H](O)CO)c4c(C(O)CO)cccc43)cc2)ccc1C(F)(F)F (stereo partly drawn) [Compound 141, 5-(4-(4-(1,2-Dihydroxyethyl)-3-((S)-2,3-dihydroxypropyl)-1H-indol-1-yl)phenoxy)-2-(trifluoromethyl)benzonitrile] | 1.97 ± 0.494 µM |
| N#Cc1ccc(Oc2ccc(-n3cc(C[C@H](O)CO)c4ccncc43)cc2)cc1 [Compound 170] | 1.38 ± 0.542 µM |
| NC(Cc1c[nH]c2ccc(-c3ccc(Oc4ccccc4)cc3)cc12)C(=O)O (centres unmarked) [Compound 9, 2-Amino-3-[5-(4-phenoxyphenyl)-1H-indol-3-yl]propionic acid] | > 20 µM |
| NC(=O)c1ccc2c(C[C@H](O)CO)cn(-c3ccc(Oc4ccc(F)cc4)cc3)c2c1 [Compound 123, (S)-3-(2,3-Dihydroxypropyl)-1-(4-(4-fluorophenoxy)phenyl)-1H-indole-6-carboxamide] | 4.92 ± 0.822 µM |
| NC(=O)C(N)Cc1c[nH]c2cc(-c3ccc(Oc4ccccc4)cc3)ccc12 (centres unmarked) [Compound 15, 2-Amino-3-[6-(4-phenoxyphenyl)-1H-indol-3-yl]propionamide] | 2.05 ± 0.094 µM |
| NC(Cc1cn(-c2ccc(Oc3ccccc3)cc2)c2ccccc12)C(=O)NCCO (centres unmarked) [Compound 37, 2-Amino-N-(2-hydroxyethyl)-3-[1-(4-phenoxyphenyl)-1H-indol-3-yl]-propionamide] | 0.364 ± 0.112 µM |
| N#Cc1cccc2c1c(C[C@H](O)CO)cn2-c1ccc(Oc2ccc(F)cc2)cc1 [Compound 120, (S)-3-(2,3-Dihydroxypropyl)-1-(4-(4-fluorophenoxy)phenyl)-1H-indole-4-carbonitrile] | 0.262 ± 0.066 µM |
| OCc1cn(-c2ccc(Oc3ccc(C(F)(F)F)cc3)cc2)c2cnccc12 [Compound 164, (1-(4-(4-(Trifluoromethyl)phenoxy)phenyl)-1H-pyrrolo[2,3-c]pyridin-3-yl)methanol] | 0.345 ± 0.027 µM |
| N#Cc1ccc2c(c1)c(C[C@H](O)CO)cn2-c1ccc(Oc2ccc(F)cc2)cc1 [Compound 110, (S)-3-(2,3-Dihydroxypropyl)-1-(4-(4-fluorophenoxy)phenyl)-1H-indole-5-carbonitrile] | 2.45 ± 0.542 µM |
| CC(C)(C)OC(=O)NC(Cc1c[nH]c2cc(-c3ccc(Oc4ccccc4)cc3)ccc12)C(=O)O (centres unmarked) [Compound 17, 2-tert-Butoxycarbonylamino-3-[6-(4-phenoxyphenyl)-1H-indol-3-yl]-propionic acid] | 1.93 ± 0.228 µM |
| N#Cc1cc(Oc2ccc(-n3cc(C[C@@H](O)CO)c4c(C(O)CO)cccc43)cc2)ccc1C(F)(F)F (stereo partly drawn) [Compound 139, 5-(4-(4-(1,2-Dihydroxyethyl)-3-((R)-2,3-dihydroxypropyl)-1H-indol-1-yl)phenoxy)-2-(trifluoromethyl)benzonitrile] | > 20 µM |
| CCN(CC)CCn1cc(C[C@H](O)CO)c2cc(-c3ccc(Oc4ccc(F)cc4)cc3)ccc21 [Compound 182] | 1.06 ± 0.026 µM |
| OC[C@@H](O)Cc1cn(-c2ccc(Oc3ccc(C(F)(F)F)cn3)cc2)c2ccccc12 [Compound 83, (S)-3-(1-(4-((5-(Trifluoromethyl)pyridin-2-yl)oxy)phenyl)-1H-indol-3-yl)propane-1,2-diol] | 0.257 ± 0.067 µM |
| CCOC(=O)C(Cc1c[nH]c2cc(-c3ccc(Oc4ccccc4)cc3)ccc12)NC(=O)OC(C)(C)C (centres unmarked) [Compound 16, 2-tert-Butoxycarbonylamino-3-[6-(4-phenoxyphenyl)-1H-indol-3-yl]-propionic acid ethyl ester] | 2.52 ± 0.663 µM |
| N#Cc1cccc2c(C[C@H](O)CO)cn(-c3ccc(Oc4ccc(F)cc4)cc3)c12 [Compound 115, (S)-3-(2,3-Dihydroxypropyl)-1-(4-(4-fluorophenoxy)phenyl)-1H-indole-7-carbonitrile] | 0.474 ± 0.133 µM |
| CS(=O)(=O)NC(Cc1cn(-c2ccc(Oc3ccccc3)cc2)c2ccccc12)C(N)=O (centres unmarked) [Compound 39, 2-Methanesulfonylamino-3-[1-(4-phenoxyphenyl)-1H-indol-3-yl]propionamide] | 1.01 ± 0.162 µM |
